According to US12169196B2, “Human iPSC-based drug testing platform for muscular dystrophy” (The Johns Hopkins University, priority 2019, dated 2024):
Entries after “also recorded” stand apart in the source; their conditions may differ.

Experiments:
mdx^5cv mice [1] = assay: Masson's trichrome fibrosis in diaphragm muscle; type: in vivo, mouse; settings: ip, 10 mg/kg, 1344 h
Text: (§1) All animal experiments were approved by the Institutional Animal Care and Use Committee (IACUC) of The Johns Hopkins University, School of Medicine (Baltimore, Maryland). Mdx^5cv (B6Ros.Cg-Dmdmdx-5Cv/J) were obtained from The Jackson Laboratory. Mice were maintained in a 12-h light cycle (7 am-7 pm) with ad libitum access to food and water. […] Ginsenoside Rd was suspended in saline containing 10% 1,3-propanediol as vector.
Gastrocnemius, tibialis anterior, and diaphragm muscles were embedded in OCT, frozen in isopentane, and cross-sectioned (˜2-10 μm thickness). The sections were also stained with DAPI to visualize nuclei. In mice where Evans blue dye (EBD, 10 mg/ml) was used to evaluate membrane damage, EBD was injected at 0.05 ml/10 g intraperitoneally, 24 hours before sacrificing the mice. To evaluate EBD staining, gastrocnemius muscle sections were fixed with acetone and imaged with fluorescence microscopy. The area of EBD as a percentage of total area was calculated. To evaluate the number of central nucleated fibers, sections of the tibialis anterior muscle were stained with hematoxylin and eosin. Central nucleated fiber number was counted and analyzed against total fiber number. Diaphragm sections (10 μm) were stained with Masson's trichrome to determine collagen content. The stained areas were quantified against the total area.

mdx^5cv mice [2] = assay: Quadriceps strength and susceptibility to injury; type: in vivo, mouse
Text: as §1
In vivo muscle physiology. Quadriceps strength (maximal isometric torque) and susceptibility to injury were assessed in vivo as described (69, 70). Briefly, animals were anaesthetized with 3-5% isoflurane and placed in a supine position. The thigh was stabilized and the ankle was secured on to a lever arm. The knee was aligned with the axis of the stepper motor (model T8904, NMB Technologies, Chatsworth, CA, USA) and a torque sensor (QWFK-8M, Sensotec, Columbus, OH, USA), and the femoral nerve was stimulated via subcutaneous needle electrodes. A custom program based on commercial software (LabView version 8.5, National Instruments, Austin, TX, USA) was used to synchronize contractile activation and the onset of forced knee flexion. The position of the leg that results in optimal muscle length has been previously described and maximum isometric torque was measured in Newton-millimeters (Nmm). Injury was induced by 15 forced lengthenings (knee flexion) superimposed onto maximal quadriceps contractions through a 40-100 degree arc of motion (with full knee extension considered 0 deg) spaced 1 min apart. Loss in maximal isometric torque was measured 5 min after the last lengthening contraction. Since the knee position, lever arm, and moment arm of the muscle are unchanged between tests, maximal isometric torque reflects maximal isometric muscle force.

ERK1/2 = assay: Western blot of phosphorylated ERK 1/2 in D2 myoblasts; type: cell-based, human; settings: ginsenoside 25 μM or FLT3 recombinant protein 100 ng/ml, 30 min
Experimental: FIG. 3C, 3E: Quantification of western blot of phosphorylated ERK 1/2 (p-ERK 1/2) in D2 myoblasts treated with ginsenoside (25 μM), FLT3 recombinant protein (100 ng/ml) or DMSO for 30 min, n=4, *P≤0.05. […] (Data=Mean±SEM, FIGS. 3D, 3E: one-way ANOVA with Dunnett's multiple comparison test with DMSO negative control, FIG. 3G: one-way ANOVA with Tukey's multiple comparison test).
Whole-cell extracts were prepared by lysing cells on plate with RIPA buffer (CST) supplemented by proteinase inhibitor and phosphatase inhibitor cocktail (CST). […] Protein transfer was performed with the Bio-Rad turbo or wet/tank blotting system. Nitrocellulose membranes were incubated with primary antibodies overnight at 4° C. Membranes were then incubated with a secondary IRDye 800 conjugated anti-rabbit IgG, or Alexa Fluor 680 anti-mouse IgG and proteins were visualized and quantified using the LI-COR Odyssey Infrared Imaging System (LI-COR). Primary antibodies applied in this study were all purchased from Cell Signaling Technology except for the MEF2C antibody, which was from Sigma.

mdx^5cv mice [3] = assay: Tibialis anterior muscle strength and rate of fatigue; type: in vivo, mouse
Text: as §1
Tibialis anterior muscle strength (maximal isometric force) and rate of fatigue were measured. Briefly, animals were anaesthetized with 3-5% isoflurane and placed in a supine position. The tibia was stabilized and the distal tendon of the tibialis anterior (TA) was surgically released and attached to the load cell (FT03, Grass Instruments, Warwick, RI). The load cell was adjusted via a micromanipulator to stretch the muscle to resting length (aka, optimal length). TA contraction was then triggered via subcutaneous stimulation of the fibular nerve, and the resulting force generated was sampled at 1 kHz and analyzed with acquisition software (PolyVIEW™ 16, Grass Instruments). After contractile function experiments, animals were euthanized and the TAs were harvested and weighed. […] To provide an index of fatigue, muscle tension was measured after 5 minutes of tetanic stimulation (200 ms train duration) repeated at 1 Hz and expressed as a percentage of initial tension.

CC(C)=CCC[C@](C)(O[C@@H]1O[C@H](CO)[C@@H](O)[C@H](O)[C@H]1O)[C@H]1CC[C@]2(C)[C@@H]1[C@H](O)C[C@@H]1[C@@]3(C)CC[C@H](O[C@@H]4O[C@H](CO)[C@@H](O)[C@H](O)[C@H]4O[C@@H]4O[C@H](CO)[C@@H](O)[C@H](O)[C@H]4O)C(C)(C)[C@@H]3CC[C@]12C [ginsenoside Rd]
reduction of levels of fibrosis in diaphragm (mdx^5cv mice [1]): 29% | loss in muscle force after contraction-induced injury, quadriceps (mdx^5cv mice [2]): 56±4.8% | maximal isometric force generated by quadriceps muscle (mdx^5cv mice [2]; compared with sham control): no significant difference | ERK1/2 activation (p-ERK 1/2) (ERK1/2): activated | susceptibility of TA muscles to fatigue (repeated maximal isometric contractions) (mdx^5cv mice [3]; compared to mdx TA muscles): less susceptible to fatigue; also recorded: increased their resistance to fatigue | maximal isometric force generated by tibialis anterior (TA) (mdx^5cv mice [3]; compared with sham control): no significant difference
